Values quoted from earlier work in patent US9273049B2 (North-West University, priority 2009, dated 2016).

Conditions: Class II = high permeability, low solubility

FDA classification: Class II
Structure (SMILES): Cc1ccnc2c1NC(=O)c1cccnc1N2C1CC1 [nevirapine, 11-cyclopropyl1-5,11-dihydro-4-methyl-6H-dipyrido[3,2-b: 2′,3′-e][1,4]diazepin-6-one]
